Test results from patent publication US6355799B1, “Substituted benzene compounds, process for their preparation, and herbicidal and defoliant compositions containing them” (ISK Americas Incorporated, priority 1997, dated 2002).

Key:
Assay type in all cases: in vivo
[1] = tested on: redroot pigweed (Amaranthus retroflexus, AMARE); assay: Pre-emerge test, greenhouse herbicide activity screening; settings: phytotoxicity rating 0-100, 14 days after application
Method in brief: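 Sandy loam pots; pre-emerge: sown 1 d pre-spray, surface-watered after, then bottom-watered. Post-emerge: sown 8–21 d before, 2–3 leaf stage, + 0.25% v/v NIS, bottom-watered. Acetone, 187 l/ha track spray, 15–1000 g ai/ha. 0–100 injury score, day 14.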

[2] = tested on: barnyardgrass (Echinochloa crus-galli, ECHCG); assay: as above; settings: phytotoxicity rating 0-100, 14 days after application
Method in brief: (§1)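 Herbicidal damage is scored 0 (none) to 100 (complete plant death) two weeks after a simulated field spray. Rates span 15–1000 g ai/ha, delivered in acetone at 187 l/ha. For post-emergence treatments, plants have 2–3 leaves and the spray carries 0.25% v/v non-ionic surfactant.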

[3] = tested on: green foxtail (Setaria viridis, SETVI); assay: as above; settings: phytotoxicity rating 0-100, 14 days after application
Method in brief: as §1

[4] = tested on: ivyleaf morningglory (Ipomoea hederacea, IPOHE); assay: as above; settings: phytotoxicity rating 0-100, 14 days after application
Method in brief: as §1

[5] = tested on: johnsongrass (Sorghum halepense, SORHA); assay: as above; settings: phytotoxicity rating 0-100, 14 days after application
Method in brief: as §1

[6] = tested on: lambsquarters (Chenopodium album, CHEAL); assay: as above; settings: phytotoxicity rating 0-100, 14 days after application
Method in brief: as §1

[7] = tested on: large crabgrass (Digitaria sanguinalis, DIGSA); assay: as above; settings: phytotoxicity rating 0-100, 14 days after application
Method in brief: as §1

[8] = tested on: sicklepod (Cassia obtusifolia, CASOB); assay: as above; settings: phytotoxicity rating 0-100, 14 days after application
Method in brief: as §1

[9] = tested on: velvetleaf (Abutilon theophrasti, ABUTH); assay: as above; settings: phytotoxicity rating 0-100, 14 days after application
Method in brief: as §1

[10] = tested on: field corn (Zea mays L., var. Dekalb 535, CORN); assay: Pre-emerge test, crop safety; settings: crop damage rating 0-100, 14 days after application
Method in brief: as §1

[11] = tested on: upland rice (Oryza sp., var. Tebonnet, RICE); assay: Pre-emerge test, crop safety; settings: crop damage rating 0-100, 14 days after application
Method in brief: as §1

[12] = tested on: barnyardgrass (Echinochloa crus-galli, ECHCG); assay: Post-emerge test, greenhouse herbicide activity screening; settings: post-emerge, 14 days after application, rating scale 0-100
Method in brief: (§2)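 Fourteen days after spraying, crop and weed injury was graded visually from 0, no effect, to 100, every plant dead. Test substances were dissolved in acetone and applied at 15–1000 g ai/ha with a flat-fan nozzle. Application was either pre-emergence, one day after sowing, or post-emergence at the 2–3 leaf stage.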

[13] = tested on: green foxtail (Setaria viridis, SETVI); assay: as above; settings: post-emerge, 14 days after application, rating scale 0-100
Method in brief: as §2

[14] = tested on: ivyleaf morningglory (Ipomoea hederacea, IPOHE); assay: as above; settings: post-emerge, 14 days after application, rating scale 0-100
Method in brief: as §2

[15] = tested on: johnsongrass (Sorghum halepense, SORHA); assay: as above; settings: post-emerge, 14 days after application, rating scale 0-100
Method in brief: as §2

[16] = tested on: lambsquarters (Chenopodium album, CHEAL); assay: as above; settings: post-emerge, 14 days after application, rating scale 0-100
Method in brief: as §2

[17] = tested on: large crabgrass (Digitaria sanguinalis, DIGSA); assay: as above; settings: post-emerge, 14 days after application, rating scale 0-100
Method in brief: as §2

[18] = tested on: redroot pigweed (Amaranthus retroflexus, AMARE); assay: as above; settings: post-emerge, 14 days after application, rating scale 0-100
Method in brief: as §2

[19] = tested on: sicklepod (Cassia obtusifolia, CASOB); assay: as above; settings: post-emerge, 14 days after application, rating scale 0-100
Method in brief: as §2

[20] = tested on: velvetleaf (Abutilon theophrasti, ABUTH); assay: as above; settings: post-emerge, 14 days after application, rating scale 0-100
Method in brief: as §2

[21] = tested on: field corn (Zea mays L., var. Dekalb 535, CORN); assay: Post-emerge test, crop safety; settings: post-emerge, 14 days after application, rating scale 0-100
Method in brief: as §1

[22] = tested on: upland rice (Oryza sp., var. Tebonnet, RICE); assay: Post-emerge test, crop safety; settings: post-emerge, 14 days after application, rating scale 0-100
Method in brief: as §1

CCOC(=O)COc1c(Cl)cc(F)c(-n2c(=O)cc(C(F)(F)F)n(C)c2=O)c1NC(=O)C=Cc1ccccc1 [2-190]
70: Pre-emerge Herbicidal Activity CASOB ([8]; 250 g ai/ha)
90: Pre-emerge Herbicidal Activity IPOHE ([4]; 250 g ai/ha) | phytotoxicity rating IPOHE ([14]; 250 g ai/ha) | CHEAL phytotoxicity rating ([16]; 63 g ai/ha) | ABUTH phytotoxicity rating ([20]; 63 g ai/ha) | phytotoxicity rating ABUTH ([20]; 250 g ai/ha)
20: Pre-emerge Herbicidal Activity RICE ([11]; 250 g ai/ha) | CASOB phytotoxicity rating ([19]; 63 g ai/ha)
5: CORN phytotoxicity rating (crop damage) ([21]; 63 g ai/ha) | phytotoxicity rating RICE (crop damage) ([22]; 250 g ai/ha)
50: IPOHE phytotoxicity rating ([14]; 63 g ai/ha) | phytotoxicity rating SORHA ([15]; 250 g ai/ha)
95: Pre-emerge Herbicidal Activity AMARE ([1]; 63 g ai/ha) | AMARE phytotoxicity rating ([18]; 63 g ai/ha)
99: phytotoxicity rating AMARE ([18]; 250 g ai/ha)
10: Pre-emerge Herbicidal Activity RICE ([11]; 63 g ai/ha) | phytotoxicity rating ECHCG ([12]; 250 g ai/ha) | phytotoxicity rating CORN (crop damage) ([21]; 250 g ai/ha)
80: phytotoxicity rating CASOB ([19]; 250 g ai/ha)
0: Pre-emerge Herbicidal Activity ECHCG ([2]; 63 g ai/ha) | Pre-emerge Herbicidal Activity ECHCG ([2]; 250 g ai/ha) | Pre-emerge Herbicidal Activity SETVI ([3]; 63 g ai/ha) | Pre-emerge Herbicidal Activity IPOHE ([4]; 63 g ai/ha) | Pre-emerge Herbicidal Activity SORHA ([5]; 63 g ai/ha) | Pre-emerge Herbicidal Activity SORHA ([5]; 250 g ai/ha) | Pre-emerge Herbicidal Activity DIGSA ([7]; 63 g ai/ha) | Pre-emerge Herbicidal Activity CORN ([10]; 63 g ai/ha) | Pre-emerge Herbicidal Activity CORN ([10]; 250 g ai/ha) | ECHCG phytotoxicity rating ([12]; 63 g ai/ha) | SETVI phytotoxicity rating ([13]; 63 g ai/ha) | phytotoxicity rating SETVI ([13]; 250 g ai/ha) | SORHA phytotoxicity rating ([15]; 63 g ai/ha) | DIGSA phytotoxicity rating ([17]; 63 g ai/ha) | phytotoxicity rating DIGSA ([17]; 250 g ai/ha) | RICE phytotoxicity rating (crop damage) ([22]; 63 g ai/ha)
100: Pre-emerge Herbicidal Activity AMARE ([1]; 250 g ai/ha) | Pre-emerge Herbicidal Activity CHEAL ([6]; 63 g ai/ha) | Pre-emerge Herbicidal Activity CHEAL ([6]; 250 g ai/ha) | Pre-emerge Herbicidal Activity ABUTH ([9]; 63 g ai/ha) | Pre-emerge Herbicidal Activity ABUTH ([9]; 250 g ai/ha) | phytotoxicity rating CHEAL ([16]; 250 g ai/ha)
30: Pre-emerge Herbicidal Activity SETVI ([3]; 250 g ai/ha) | Pre-emerge Herbicidal Activity DIGSA ([7]; 250 g ai/ha) | Pre-emerge Herbicidal Activity CASOB ([8]; 63 g ai/ha)
